Reference: paper PMC10958501, “4-Oxypiperidine Ethers as Multiple Targeting Ligands at Histamine H3 Receptors and Cholinesterases” (ACS Chemical Neuroscience, 2024)

Assays:
hH3R = molecular target: T1, hH3R (Homo sapiens, UniProt Q9Y5N1); test: hH3R radioligand displacement assay in membrane fractions of HEK-293 cells; format: binding; conditions: [3H]Nα-methylhistamine displacement, HEK-293 membranes; 95% CI in brackets
T1 construct: expressed in transfected cells; membrane fractions
Protocol: The compounds were tested against H3R by an ex vivo assay using isolated guinea pig ileum electrically stimulated to contraction, according to Vollinga et al.[47] The pA2-values were calculated according to Arunlakshana and Schild.[59] The radioligand-displacement assay was performed in membrane fractions of HEK-293 cells stably expressing hH3R. Cell cultivation and membrane preparation were performed according to Kottke et al.[48] The Ki values were calculated from the IC50 values using the Cheng–Prusoff equation.[60] The statistical calculations were performed on −log(Ki). The mean values and 95% confidence intervals were transformed to nanomolar concentrations. The inhibitory activities toward AChE and BuChE of novel ADS compounds were assessed in a spectrophotometric Ellman’s assay using electric eel AChE (eeAChE) and equine BuChE (eqBuChE).[57] Intracellular cAMP accumulation was measured with a homogeneous TR-FRET immunoassay using the LANCE Ultra cAMP kit (PerkinElmer) and HEK293 cells stably expressing the human histamine H3 receptor.[61] A more detailed description of the biological methods is presented in the Supporting Information. […]
considered statistically significant. The pA2 values were compared with the affinity of thioperamide (Sigma-Aldrich, St. Louis, MO, USA).
3.2. hH 3R radioligand displacement binding assay.
The radioligand displacement binding assay was performed in membrane fractions of HEK-293 cells stably expressing hH3R. Cell cultivation and membrane preparation was performed according to Kottke et al 6. For the radioligand displacement assay, radioactively labeled […]
assay volume was set to 200 µL. The compounds were tested in several appropriate concentrations between 100 µM and 0.1 nM. Pipetting was partly done by Freedom Evo® (Tecan). Pitolisant was used to determine non-specific binding at a concentration of 10 µM.
The membrane fraction (20 µg/well), test compounds, and radiolabeled ligand were incubated for 90 minutes at 25 °C while shaking. The bound radioligand was separated from the free radioligand by filtration through GF/B filters pre-treated with 0.3 % (m/v) polyethyleneimine using a cell harvester. Radioactivity was determined by liquid scintillation counting using a MicroBeta® Trilux (Perkin Elmer). The data was obtained in duplicates in at least three independent experiments. Non-specific binding was subtracted from the raw data to calculate specific binding values. The evaluation was performed with GraphPad Prism 6.1 (San Diego, CA, USA) using non-linear regression (one-site competition with a logarithmic scale). The Ki values were calculated from the IC50 values using the Cheng-Prusoff equation 7. The statistical calculations were performed on –log(Ki). […]

eqBuChE = eqBuChE (Equus caballus, UniProt P81908); test: biochemical
[1] = molecular target: T2, human histamine H3 receptor (Homo sapiens, UniProt Q9Y5N1); test: H3R intrinsic activity, cAMP accumulation assay in HEK293 cells; format: cell-based
T2 construct: expressed in transfected cells
Protocol: For the lead compound ADS031, intrinsic activity at H3R was tested in HEK293 cells expressing recombinant human receptors using a cAMP accumulation assay. […] […].
The compounds were tested against H3R by an ex vivo assay using isolated guinea pig ileum electrically stimulated to contraction, according to Vollinga et al.[47] The pA2-values were calculated according to Arunlakshana and Schild.[59] The radioligand-displacement assay was performed in membrane fractions of HEK-293 cells stably expressing hH3R. Cell cultivation and membrane preparation were performed according to Kottke et al.[48] The Ki values were calculated from the IC50 values using the Cheng–Prusoff equation.[60] The statistical calculations were performed on −log(Ki). The mean values and 95% confidence intervals were transformed to nanomolar concentrations. The inhibitory activities toward AChE and BuChE of novel ADS compounds were assessed in a spectrophotometric Ellman’s assay using electric eel AChE (eeAChE) and equine BuChE (eqBuChE).[57] Intracellular cAMP accumulation was measured with a homogeneous TR-FRET immunoassay using the LANCE Ultra cAMP kit (PerkinElmer) and HEK293 cells stably expressing the human histamine H3 receptor.[61] A more detailed description of the biological methods is presented in the Supporting Information.
3.4. H3R intrinsic activity.
Intracellular cAMP accumulation was measured with homogenous TR-FRET immunoassay, using LANCE Ultra cAMP kit (PerkinElmer) and HEK293 cells, stably expressing human histamine H3 receptor. An antagonist dose-response experiments were performed in a total assay volume of 20 μl in white 384-well plates, using 750 cells/well. […] TR-FRET signal was read on Spark microplate reader (Tecan Life Sciences). Measured TR-FRET, which was inversely proportional to cAMP quantities in the sample, was then normalized and presented as % of maximal cAMP accumulation in the assay determined for the forskolin alone-stimulated cells. […]

T2 sequence (Q9Y5N1 whole entry): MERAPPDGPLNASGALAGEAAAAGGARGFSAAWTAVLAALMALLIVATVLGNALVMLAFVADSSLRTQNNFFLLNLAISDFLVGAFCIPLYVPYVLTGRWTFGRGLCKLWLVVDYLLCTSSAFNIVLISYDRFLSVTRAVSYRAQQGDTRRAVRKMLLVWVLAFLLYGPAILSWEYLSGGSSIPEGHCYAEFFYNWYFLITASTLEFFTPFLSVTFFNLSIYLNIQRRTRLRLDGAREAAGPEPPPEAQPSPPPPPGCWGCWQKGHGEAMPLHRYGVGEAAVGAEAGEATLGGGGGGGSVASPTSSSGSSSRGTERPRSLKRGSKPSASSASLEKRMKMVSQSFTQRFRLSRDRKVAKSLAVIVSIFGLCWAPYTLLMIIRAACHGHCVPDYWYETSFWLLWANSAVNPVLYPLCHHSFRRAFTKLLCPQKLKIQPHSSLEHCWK
Sequence of eqBuChE (P81908 whole entry): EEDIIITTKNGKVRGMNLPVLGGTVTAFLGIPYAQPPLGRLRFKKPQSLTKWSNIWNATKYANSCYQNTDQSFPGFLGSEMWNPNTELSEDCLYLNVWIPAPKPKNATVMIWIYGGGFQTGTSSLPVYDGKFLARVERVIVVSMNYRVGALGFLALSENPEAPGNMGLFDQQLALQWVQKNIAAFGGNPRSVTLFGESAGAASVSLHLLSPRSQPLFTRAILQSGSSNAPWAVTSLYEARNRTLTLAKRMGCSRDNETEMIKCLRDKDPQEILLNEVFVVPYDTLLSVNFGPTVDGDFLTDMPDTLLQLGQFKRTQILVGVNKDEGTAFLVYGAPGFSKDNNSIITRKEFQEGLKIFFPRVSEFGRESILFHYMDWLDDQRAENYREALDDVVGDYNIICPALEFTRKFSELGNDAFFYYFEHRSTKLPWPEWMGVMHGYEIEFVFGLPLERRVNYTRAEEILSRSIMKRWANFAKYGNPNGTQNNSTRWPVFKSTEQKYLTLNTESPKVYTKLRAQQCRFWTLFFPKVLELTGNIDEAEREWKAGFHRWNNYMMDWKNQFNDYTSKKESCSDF
T1 sequence (Q9Y5N1 whole entry): as the sequence (Q9Y5N1 whole entry) above

Compound `CCCN(C)Cc1ccc2cc(COC3CCN(Cc4ccccc4)CC3)ccc2c1` [ADS031, N-((6-(((1-Benzylpiperidin-4-yl)oxy)methyl)naphthalen-2-yl)methyl)-N-methylpropan-1-amine] has a Ki (hH3R) of 12.5 nM, an inhibition at 10 µM (eqBuChE; read-out: eqBuChE % inh. (10 μM) ± SD) of 93.1 ± 0.4% and an IC50 (eqBuChE; read-out: eqBuChE IC50 [μM] ± sem) of 1.35 ± 0.05 µM. The Kb ([1]; Leff-Dougall variant of Cheng-Prusoff equation, read-out: Kb in H3R functional assay (cAMP accumulation)) was 0.75 ± 0.15 nM, the IC50 ([1]; against (R)-(−)-α-methylhistamine (30 nM), forskolin-stimulated HEK293 cells, read-out: IC50 in H3R functional assay (cAMP accumulation)) was 41.7 ± 8.5 nM and the H3R intrinsic activity ([1]; cAMP accumulation assay) was “H3R antagonist/inverse agonist”.
